Laboratory results taken from patent publication US20140081017A1, “Histone Deacetylase Inhibitors for Enhancing Activity of Antifungal Agents” (METHYLGENE INC., priority 2012, published 2014).
Values after ≈ are worked out from the molar mass of the structure shown. Read-outs that look alike come from different tables or passages of the source.

Experiments:
C. glabrata = test: Checkerboard FIC assay in combination with fluconazole (MIC alone and in combination, FICI); format: cell-based, Candida glabrata; conditions: for FICI of combination resulting in fluconazole MIC of: 2 ug/mL / FICI of combination resulting in fluconazole MIC of: 4 ug/mL / FICI of combination resulting in fluconazole MIC of: 8 ug/mL: FICI calculated using a fluconazole MIC of 16 μg/mL; for FICI of combination resulting in fluconazole MIC of: 2 ug/mL (value in parenthesis) / FICI of combination resulting in fluconazole MIC of: 4 ug/mL (value in parenthesis) / FICI of combination resulting in fluconazole MIC of: 8 ug/mL (value in parenthesis): FICI using a fluconazole MIC of 128 μg/mL; for MIC: Nakaseomyces glabratus; for Multiple of compound MIC to synergize fluconazole MIC to 2 ug/mL / Multiple of compound MIC to synergize fluconazole MIC to 4 ug/mL / Multiple of compound MIC to synergize fluconazole MIC to 8 ug/mL: concentration in combination as multiple of the compound's MIC alone; for Multiple of compound MIC to synergize fluconazole MIC to 2 ug/mL: fluconazole MIC 2 ug/mL; for Multiple of compound MIC to synergize fluconazole MIC to 4 ug/mL: fluconazole MIC 4 ug/mL; for Multiple of compound MIC to synergize fluconazole MIC to 8 ug/mL: fluconazole MIC 8 ug/mL; for Concentration of Methylgene compound to synergize fluconazole MIC to 2 ug/mL / Concentration of Methylgene compound to synergize fluconazole MIC to 4 ug/mL / Concentration of Methylgene compound to synergize fluconazole MIC to 8 ug/mL: in combination with fluconazole; for Concentration of Methylgene compound to synergize fluconazole MIC to 2 ug/mL: fluconazole MIC lowered to 2 ug/mL; for Concentration of Methylgene compound to synergize fluconazole MIC to 4 ug/mL: fluconazole MIC lowered to 4 ug/mL; for Concentration of Methylgene compound to synergize fluconazole MIC to 8 ug/mL: fluconazole MIC lowered to 8 ug/mL
In short: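 A fluconazole synergy checkerboard was run against C. glabrata in MOPS-buffered RPMI (pH 7.0) for about 48 h at 35 °C. Each agent was diluted 2-fold, with one row and one column holding each agent alone for MIC determination. FICI was calculated from these MICs, using a 0.5 McFarland inoculum diluted 1:100 per CLSI.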

Candida glabrata = test: Minimal Inhibitory Concentration (MIC) assay, broth microdilution per CLSI; format: cell-based; conditions: Nakaseomyces glabratus, read-out: Minimum Inhibitory Concentrations against Yeast Isolates, Candida glabrata;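 further: two read times 24 hr and 48 hr of incubation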
In short: (§1)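 Read-out is visual: MIC is the lowest compound concentration preventing visible growth after approximately 24-48 hr at 35° C. Testing used CLSI microdilution in MOPS-buffered RPMI (pH 7.0) with serial 1:1 compound dilutions made in DMSO.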

Candida parapsilosis = test: as above; format: cell-based; conditions: Lodderomyces parapsilosis, read-out: Minimum Inhibitory Concentrations against Yeast Isolates, Candida parapsilosis;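 further: two read times 24 hr and 48 hr of incubation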
In short: as §1

Candida albicans = test: as above; format: cell-based; conditions: Candida albicans, read-out: Minimum Inhibitory Concentrations against Yeast Isolates, Candida albicans;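 further: two read times 24 hr and 48 hr of incubation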
In short: as §1

[1] = MIC of the example compound alone against C. glabrata in the checkerboard assay, approximately 48 hr, read-out: Methylgene MIC
[2] = test compound alone, C. glabrata, approx. 48 hr at 35° C., read-out: Compound MIC
[3] = 24 hr reading (first value of cell 24 hr/48 hr)
[4] = 48 hr reading (second value of cell 24 hr/48 hr)

In the case of `O=C(Cc1ccc(CCCCc2ccc(-c3ccccc3)cc2)cc1)NO` [Example 5, 2-(4-(4-(biphenyl-4-yl)butyl)phenyl)-N-hydroxyacetamide], the “FICI of combination resulting in fluconazole MIC of: 2 ug/mL” value (C. glabrata; C. glabrata) is reported as 0.125, the “FICI of combination resulting in fluconazole MIC of: 4 ug/mL” value (C. glabrata; C. glabrata) is reported as 0.155 and the “FICI of combination resulting in fluconazole MIC of: 8 ug/mL” value (C. glabrata; C. glabrata) is reported as 0.280. The “FICI of combination resulting in fluconazole MIC of: 2 ug/mL (value in parenthesis)” value (“FICI … 2 ug/mL (value in parenthesis)” below) (C. glabrata; C. glabrata) was 0.078, the “FICI of combination resulting in fluconazole MIC of: 4 ug/mL (value in parenthesis)” value (“FICI … 4 ug/mL (value in parenthesis)” for short) (C. glabrata; C. glabrata) was 0.061 and the “FICI of combination resulting in fluconazole MIC of: 8 ug/mL (value in parenthesis)” value (from here on “FICI … 8 ug/mL (value in parenthesis)”) (C. glabrata; C. glabrata) was 0.093. The MIC (C. glabrata; [1]) was 4 µg/mL, the MIC (C. glabrata; [2]) was 4 µg/mL and the “Multiple of compound MIC to synergize fluconazole MIC to 2 ug/mL” value (from here on “Multiple of compound MIC … to 2 ug/mL”) (C. glabrata) was “( 1/16x)”. For the same compound, the “Multiple of compound MIC to synergize fluconazole MIC to 4 ug/mL” value (“Multiple of compound MIC … to 4 ug/mL” below) (C. glabrata) was “( 1/16x)”, the “Multiple of compound MIC to synergize fluconazole MIC to 8 ug/mL” value (shortened to “Multiple of compound MIC … to 8 ug/mL”) (C. glabrata) was “( 1/16x)” and the “Concentration of Methylgene compound to synergize fluconazole MIC to 2 ug/mL” value (“Concentration … to 2 ug/mL” for short) (C. glabrata; C. glabrata) was 0.25 µg/mL. For the same compound, the “Concentration of Methylgene compound to synergize fluconazole MIC to 4 ug/mL” value (shortened to “Concentration … to 4 ug/mL”) (C. glabrata; C. glabrata) was 0.12 µg/mL, the “Concentration of Methylgene compound to synergize fluconazole MIC to 8 ug/mL” value (“Concentration … to 8 ug/mL” below) (C. glabrata; C. glabrata) was 0.12 µg/mL and the MIC (Candida glabrata; [3]) was 0.5 µg/mL (≈ 1.39 µM). For the same compound, the MIC (Candida glabrata; [4]) was 8 µg/mL (≈ 22.3 µM), the MIC (Candida parapsilosis; [3]) was over 8 µg/mL and the MIC (Candida parapsilosis; [4]) was over 8 µg/mL. It also gave an MIC (Candida albicans; [3]) of over 8 µg/mL and an MIC (Candida albicans; [4]) of over 8 µg/mL.
In the case of `COCCOCCOCCOCCOCCOc1ccc(CCCCc2ccc(CC(=O)NO)cc2)cc1` [Example 10, 2-(4-(4-(4-(2,5,8,11,14-pentaoxahexadecan-16-yloxy)phenyl)butyl)phenyl)-N-hydroxyacetamide], the “FICI of combination resulting in fluconazole MIC of: 2 ug/mL” value (C. glabrata; C. glabrata) is reported as 0.375, the “FICI of combination resulting in fluconazole MIC of: 4 ug/mL” value (C. glabrata; C. glabrata) is reported as 0.500 and the “FICI of combination resulting in fluconazole MIC of: 8 ug/mL” value (C. glabrata; C. glabrata) is reported as 0.625. The “FICI … 2 ug/mL (value in parenthesis)” value (C. glabrata; C. glabrata) was 0.266, the “FICI … 4 ug/mL (value in parenthesis)” value (C. glabrata; C. glabrata) was 0.281 and the “FICI … 8 ug/mL (value in parenthesis)” value (C. glabrata; C. glabrata) was 0.188. For the same compound, the MIC (C. glabrata; [1]) was 2 µg/mL, the MIC (C. glabrata; [2]) was 2 µg/mL and the “Multiple of compound MIC … to 2 ug/mL” value (C. glabrata) was “(¼x)”. The “Multiple of compound MIC … to 4 ug/mL” value (C. glabrata) was “(¼x)”, the “Multiple of compound MIC … to 8 ug/mL” value (C. glabrata) was “(⅛x)” and the “Concentration … to 2 ug/mL” value (C. glabrata; C. glabrata) was 0.5 µg/mL. The “Concentration … to 4 ug/mL” value (C. glabrata; C. glabrata) was 0.5 µg/mL, the “Concentration … to 8 ug/mL” value (C. glabrata; C. glabrata) was 0.25 µg/mL and the MIC (Candida glabrata; [3]) was over 64 µg/mL. It also gave an MIC (Candida glabrata; [4]) of over 64 µg/mL, an MIC (Candida parapsilosis; [3]) of over 64 µg/mL and an MIC (Candida parapsilosis; [4]) of over 64 µg/mL. For the same compound, the MIC (Candida albicans; [3]) was over 64 µg/mL and the MIC (Candida albicans; [4]) was over 64 µg/mL.
`O=C(Cc1ccc(CCCCc2cccc(NC(=O)NCCN3CCOCC3)c2)cc1)NO` [Example 50, N-hydroxy-2-(4-(4-(3-(3-(2-morpholinoethyl)urei-do)phenyl)butyl)phenyl)acetamide] was tested, and the “FICI of combination resulting in fluconazole MIC of: 2 ug/mL” value (C. glabrata; C. glabrata) was 0.313, the “FICI of combination resulting in fluconazole MIC of: 4 ug/mL” value (C. glabrata; C. glabrata) was 0.250 and the “FICI of combination resulting in fluconazole MIC of: 8 ug/mL” value (C. glabrata; C. glabrata) was 0.375. The “FICI … 2 ug/mL (value in parenthesis)” value (C. glabrata; C. glabrata) was 0.266, the “FICI … 4 ug/mL (value in parenthesis)” value (C. glabrata; C. glabrata) was 0.156 and the “FICI … 8 ug/mL (value in parenthesis)” value (C. glabrata; C. glabrata) was 0.188. For the same compound, the MIC (C. glabrata; [1]) was 16 µg/mL, the MIC (C. glabrata; [2]) was 16 µg/mL and the “Multiple of compound MIC … to 2 ug/mL” value (C. glabrata) was “(¼x)”. The “Multiple of compound MIC … to 4 ug/mL” value (C. glabrata) was “(⅛x)”, the “Multiple of compound MIC … to 8 ug/mL” value (C. glabrata) was “(⅛x)” and the “Concentration … to 2 ug/mL” value (C. glabrata; C. glabrata) was 4 µg/mL. For the same compound, the “Concentration … to 4 ug/mL” value (C. glabrata; C. glabrata) was 2 µg/mL, the “Concentration … to 8 ug/mL” value (C. glabrata; C. glabrata) was 2 µg/mL and the MIC (Candida glabrata; [3]) was 8 µg/mL (≈ 17.6 µM). It also gave an MIC (Candida glabrata; [4]) of 16 µg/mL (≈ 35.2 µM), an MIC (Candida parapsilosis; [3]) of over 64 µg/mL and an MIC (Candida parapsilosis; [4]) of over 64 µg/mL. It also gave an MIC (Candida albicans; [3]) of over 64 µg/mL and an MIC (Candida albicans; [4]) of over 64 µg/mL.
